# Source: patent publication US20030180396A1, “Method of effecting phosphorylation in eucaryotic cells using thiamine triphosphate” (INSTITUT PASTEUR, priority 1999, published 2003)
# “Also recorded” adds a separate entry of the source. Read-outs that look alike come from different tables or passages of the source.
# B1: 43K-rapsyn/ATP: 43K rapsyn phosphorylated with ^32P-ATP (protein, UniProt Q13702 2-412, looked up)
# 43 kDa receptor-associated …: GQDQTKQQIEKGLQLYQSNQTEKALQVWTKVLEKSSDLMGRFRVLGCLVTAHSEMGRYKEMLKFAVVQIDTARELEDADFLLESYLNLARSNEKLCEFHKTISYCKTCLGLPGTRAGAQLGGQVSLSMGNAFLGLSVFQKALESFEKALRYAHNNDDAMLECRVCCSLGSFYAQVKDYEKALFFPCKAAELVNNYGKGWSLKYRAMSQYHMAVAYRLLGRLGSAMECCEESMKIALQHGDRPLQALCLLCFADIHRSRGDLETAFPRYDSAMSIMTEIGNRLGQVQALLGVAKCWVARKALDKALDAIERAQDLAEEVGNKLSQLKLHCLSESIYRSKGLQRELRAHVVRFHECVEETELYCGLCGESIGEKNSRLQALPCSHIFHLRCLQNNGTRSCPNCRRSSMKPGFV
# modifications: 32P-phosphorylated (ATP)
# notes: 43K rapsyn phosphorylated with ^32P-ATP
# B2: 43K-rapsyn/TTP: 43K rapsyn phosphorylated with ^32P-TTP (protein, UniProt Q13702 2-412, looked up)
# 43 kDa receptor-associated …: B1 43 kDa receptor-associated …
# modifications: 32P-phosphorylated (TTP)
# notes: 43K rapsyn phosphorylated with ^32P-TTP
# Assays:
# [1] = target: T1, Nucleoside diphosphate kinase (NDPK) (Dictyostelium discoideum, UniProt P22887); assay: Phosphorylation of NDPK with 32P-ATP or 32P-TTP as phosphodonor; type: biochemical; conditions: data not shown
# T1 sequence (P22887 1-155): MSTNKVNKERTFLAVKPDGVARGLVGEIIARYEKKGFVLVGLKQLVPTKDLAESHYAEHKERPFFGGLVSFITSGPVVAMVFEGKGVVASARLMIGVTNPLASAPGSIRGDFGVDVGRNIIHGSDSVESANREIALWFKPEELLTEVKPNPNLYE
# Method: NDPK is a highly conserved enzyme which plays a key role in growth and metastasis control (47). As the enzyme autophosphorylates histidine and presents a broad specificity, phosphorylation was assayed with TTP.
# [2] = test system: endogenous protein kinase A (PKA); assay: ATP-dependent phosphorylation of 43K rapsyn in nAChR-rich postsynaptic membranes; type: biochemical, Torpedo marmorata
# Method: (§1) nAChR-rich postsynaptic membranes (nAChR-membranes) were prepared from electric organs excised from freshly killed Torpedo marmorata (T.m.) (Biologie Marine, Arcachon) (3, 16).
# (§2) [γ-^32P]-TTP (^32P-TTP) was synthesized (27). nAChR-membranes were phosphorylated with (7-8000 Ci/mol) ^32P-TTP or ^32P-ATP in 50 mM Tris-HCl pH 7.5, 5-15 mM MgCl2, 0.08% CHAPS, inhibitors of proteases at 4°-20° C. for 60-90 minutes. […] Coomassie blue staining was performed when necessary. Where specified, nAChR-membranes were treated with 5-20 mM diethylpyrocarbonate (DEPC.) (28) in 50 mM Na phosphate buffer pH 6.0 and 7.4 (20 min, 16° C.), prior to incubation with ^32P-TTP.
# [3] = test system: TTP-dependent kinase(s) (TTP-kinase, TTP-43K-kinase); assay: TTP-dependent phosphorylation of 43K rapsyn by endogenous kinase(s) in nAChR-rich postsynaptic membranes; type: biochemical, Torpedo marmorata; conditions: for IC50: FIG. 3A, preincubation with cold triphosphate, read-out: IC50, inhibition of TTP-dependent phosphorylation of 43K rapsyn; for Kd: read-out: KD (apparent dissociation constant) of 43K rapsyn phosphorylation
# Method: as §1, §2
# A purified extract containing the kinase responsible for the TTP dependent phosphorylation of histidine residues on rapsyn, is preincubated with increasing concentration of products inhibiting the enzymatic activity of said kinase (FIG. 3A).
# mouse brain membranes = conditions: FIG. 8
# [4] = Chemical stability of the phosphate links of phosphorylated 43K rapsyn (TCA / KOH treatment); type: physicochemical, Torpedo marmorata; conditions: for P-aa stability (base): PVDF blot + base; for P-aa stability (acid): SDS-PAGE gel + acid
# Method: For acid treatment, SDS-PAGE gels containing ^32P-ATP- or ^32P-TTP-treated membranes were cut and incubated with Tris buffer or 16% TCA at 90° C. (29, 30), washed, and analyzed. Equivalent amounts of 43K rapsyn were ensured by Coomassie blue staining. For base treatment, ^32P-labeled membranes were resolved by SDS-PAGE, electroblotted on polyvinylidene difluoride membrane (PVDF). Blots were dried at 55° C. to minimize protein loss, wet in methanol, washed with H2O, cut and incubated in water or 1N KOH at 46° C. and analyzed.
molecule,measurement,setting,value
"Nc1ncnc2c1ncn2[C@@H]1O[C@H](COP(=O)(O)OP(=O)(O)O[32P](=O)(O)O)[C@@H](O)[C@H]1O [^32P-ATP, [γ-^32P]-ATP, reference compound]",phosphorylation of NDPK by the phosphodonor,[1],strongly phosphorylated
same,concentration saturating 43K rapsyn phosphorylation,[2]; not yet saturated,> 200 µM
"CCCCCCCCCCCCCC(=O)O[C@@H]1[C@@H](C)[C@@]2(O)[C@@H](C=C(CO)C[C@]3(O)C(=O)C(C)=C[C@@H]23)[C@@H]2C(C)(C)[C@]12OC(C)=O [TPA, phorbol-12-myristate-13-acetate]",effect on TTP-dependent phosphorylation of 43K rapsyn / TTP-kinase activity (in words),[3],did not drastically alter
CN([C@@H](Cc1ccc(OS(=O)(=O)c2cccc3cnccc23)cc1)C(=O)N1CCN(c2ccccc2)CC1)S(=O)(=O)c1cccc2cnccc12 [KN62],effect on TTP-dependent phosphorylation of 43K rapsyn / TTP-kinase activity (in words),[3],did not drastically alter
"Nc1ncnc2c1ncn2[C@@H]1O[C@H](COP(=O)(O)OP(=O)(O)OP(=O)(O)O)[C@@H](O)[C@H]1O [ATP, adenosine triphosphate]",effect on TTP-dependent phosphorylation of 43K rapsyn / TTP-kinase activity (in words),[3],specifically inhibited
same,IC50,[3],~500 µM
same,effect on 32P-ATP-dependent 43K rapsyn phosphorylation (in words),[2],specifically inhibited
"Nc1ncnc2c1nc(Sc1ccc(Cl)cc1)n2[C@@H]1O[C@@H]2COP(=O)([O-])O[C@H]2[C@H]1O.[Na+] [8-CPT-cAMP, Adenosine 3′-5′-cyclic monophosphate, 8-(4-Chlorophenylthio)-sodium salt]",effect on TTP-dependent phosphorylation of 43K rapsyn / TTP-kinase activity (in words),[3],did not drastically alter
O[C@@H](CS)[C@@H](O)CS [DTT],effect on TTP-dependent phosphorylation of 43K rapsyn / TTP-kinase activity (in words),[3],partially inhibited
same,% inhibition of TTP-kinase activity,[3]; 10 mM,30-40%
"CCOC(=O)OC(=O)OCC [DEPC, diethylpyrocarbonate]","43K rapsyn phosphorylation, % 32P","[3]; membranes pretreated with 5-20 mM DEPC, versus 100±19% in mock membranes",20±2%
COc1ccc(C[C@H]2NC[C@H](O)[C@H]2OC(C)=O)cc1 [anisomycin],effect on TTP-dependent phosphorylation of 43K rapsyn / TTP-kinase activity (in words),[3],did not drastically alter
O=S(=O)(NCCNC/C=C/c1ccc(Br)cc1)c1cccc2cnccc12 [H89],effect on TTP-dependent phosphorylation of 43K rapsyn / TTP-kinase activity (in words),[3],did not drastically alter
[Mg+2] [Mg^2+],effect on TTP-dependent phosphorylation of 43K rapsyn / TTP-kinase activity (in words),[3],enhanced
"CN(C)CCCn1cc(C2=C(c3c[nH]c4ccccc34)C(=O)NC2=O)c2ccccc21 [GFX, bisindolylmaleimide I]",effect on TTP-dependent phosphorylation of 43K rapsyn / TTP-kinase activity (in words),[3],did not drastically alter
CCCCCCOC(=O)[C@]1(O)C[C@@H]2O[C@@]1(C)n1c3ccccc3c3c4c(c5c6ccccc6n2c5c31)C(=O)NC4 [KT5720],effect on TTP-dependent phosphorylation of 43K rapsyn / TTP-kinase activity (in words),[3],did not drastically alter
Clc1ccc(C(c2ccc(Cl)cc2)n2cc[n+](CC(OCc3ccc(Cl)cc3Cl)c3ccc(Cl)cc3Cl)c2)cc1 (centres unmarked) [calmidazolium],effect on TTP-dependent phosphorylation of 43K rapsyn / TTP-kinase activity (in words),[3],did not drastically alter
Nc1ccn([C@@H]2O[C@H](COP(=O)(O)OP(=O)(O)OP(=O)(O)O)[C@@H](O)[C@H]2O)c(=O)n1 [CTP],effect on TTP-dependent phosphorylation of 43K rapsyn / TTP-kinase activity (in words),[3],inhibits poorly
[Zn+2] [Zn^2+],effect on TTP-dependent phosphorylation of 43K rapsyn / TTP-kinase activity (in words),[3],inhibited; also recorded: prevented
same,% inhibition of TTP-dependent phosphorylation of 43K rapsyn,"[3]; 0.5-3 mM Zn2+, 8 μM 32P-TTP, Mg2+ independent",~70%
CC1CNCCN1S(=O)(=O)c1cccc2cnccc12 (centres unmarked) [H7],effect on TTP-dependent phosphorylation of 43K rapsyn / TTP-kinase activity (in words),[3],did not drastically alter
TNF-α,effect on TTP-dependent phosphorylation of 43K rapsyn / TTP-kinase activity (in words),[3],did not drastically alter
O=S(=O)(c1cccc2c(I)cccc12)N1CCCNCC1 [ML7],effect on TTP-dependent phosphorylation of 43K rapsyn / TTP-kinase activity (in words),[3],did not drastically alter
"O=c1c(-c2ccc(O)cc2)coc2cc(O)cc(O)c12 [genisterin, genistein]",effect on TTP-dependent phosphorylation of 43K rapsyn / TTP-kinase activity (in words),[3],did not drastically alter
calphostin,effect on TTP-dependent phosphorylation of 43K rapsyn / TTP-kinase activity (in words),[3],did not drastically alter
Nc1nc2c(ncn2[C@@H]2O[C@@H]3COP(=O)(O)O[C@H]3[C@H]2O)c(=O)[nH]1 [cGMP],effect on TTP-dependent phosphorylation of 43K rapsyn / TTP-kinase activity (in words),[3],did not drastically alter
"Cc1ncc(C[n+]2csc(CCOP(=O)(O)OP(=O)(O)O[32P](=O)([O-])O)c2C)c(N)n1 [^32P-TTP, [γ-^32P]-TTP]",phosphorylation of NDPK by the phosphodonor,[1],not
same,concentration saturating 43K rapsyn phosphorylation,[3]; FIG. 3C,25 to 50 µM
thiamine triphosphate [TTP],proteins phosphorylated in mouse brain membranes,mouse brain membranes,phosphorylated very few
same,effect on TTP-dependent phosphorylation of 43K rapsyn / TTP-kinase activity (in words),[3],specifically inhibited
same,IC50,[3],~40 µM
same,Kd,"[3]; FIG. 3C, dose dependent and saturable",5 to 10 µM
same,Kd,[3]; one membrane preparation,~25 µM
same,effect on 32P-ATP-dependent 43K rapsyn phosphorylation (in words),[2],specifically inhibited
CN[C@@H]1C[C@H]2O[C@@](C)([C@@H]1OC)n1c3ccccc3c3c4c(c5c6ccccc6n2c5c31)C(=O)NC4 [staurosporine],effect on TTP-dependent phosphorylation of 43K rapsyn / TTP-kinase activity (in words),[3],did not drastically alter
Nc1nc2c(ncn2[C@@H]2O[C@H](COP(=O)(O)OP(=O)(O)OP(=O)(O)O)[C@@H](O)[C@H]2O)c(=O)[nH]1 [GTP],IC50,[3],~1000 µM
B1,P-aa stability (base),[4],base-labile
same,P-aa stability (base),[4]; listed as ATP-^32P-43K rapsyn,alkaline labile
same,% 32P remaining,"[4]; PVDF blot, 1 N KOH 46° C. 40 min, relative to control",41 ± 1%
same,% 32P remaining,"[4]; PVDF blot, 1 N KOH 46° C. 120 min, relative to control",18 ± 2%
same,% 32P remaining,"[4]; PVDF blot, 1 N KOH 46° C. 120 min, relative to control, listed as ATP-^32P-43K rapsyn",18±2%
same,P-aa stability (acid),[4],acid-stable
same,P-aa stability (acid),[4]; listed as ATP-^32P-43K rapsyn,acid stable
same,% 32P remaining,"[4]; SDS-PAGE gel, 16% TCA, 90° C. 5 min, relative to control",79 ± 5%
same,% 32P remaining,"[4]; SDS-PAGE gel, 16% TCA, 90° C. 5 min, relative to control, listed as ATP-^32P-43K rapsyn",79±5%
same,% 32P remaining,"[4]; SDS-PAGE gel, 16% TCA, 90° C. 10 min, relative to control",49 ± 9%
same,% 32P remaining,"[4]; SDS-PAGE gel, 16% TCA, 90° C. 10 min, relative to control, listed as ATP-^32P-43K rapsyn",49±9%
same,Paa/pH-stability,[4]; putative Paa listed in both acid- and base-stability analysis (ref. 45),P-Ser and/or P-Thr
B2,Paa/pH-stability,[4],P-His and/or P-Lys
same,% 32P remaining,[4]; 40 min,96 ± 3%
